The values below are quoted from earlier work in US4256727A, “Synthesis and use of diagnostic radio-pharmaceuticals comprising radioactive isotopes of bromine with dyes” (The University of Kentucky Research Foundation, priority 1978, dated 1981).

For data set [1] the following is noted: rate at which the drug is cleared from the blood after injection.
For data set [2] the following is noted: formulated with propylene glycol and stored at refrigerated temperatures.

Take `O=C1OC2(c3cc(I)c(O)c(I)c3Oc3c2cc(I)c(O)c3I)c2c(Cl)c(Cl)c(Cl)c(Cl)c21` [Rose Bengal]: the “half life of clearance from the blood” value in data set [1] was 8 to 10 min. The “stability of the product” value in data set [2] is “stable”.
For `O=S1(=O)OC(c2cc(Br)c(O)c(Br)c2)(c2cc(Br)c(O)c(Br)c2)c2ccccc21` [bromphenol blue, 4,4'-(3H-2,1,-benzoxathiol-3-ylidene)bis[2,6-dibromophenol]S,S,-dioxide], the “half life of clearance from the blood” value in data set [1] was 1.5 min.
